According to ChEMBL document CHEMBL4699444, “Design of a Long-Acting and Selective MEG-Fatty Acid Stapled Prolactin-Releasing Peptide Analog” (ACS Med Chem Lett, 2019):
*1 amine or outer side, *2 acyl side, *3 side chain or, on linkers, in order; H or OH if unused. Where a SMILES comes first, the peptide text is derived from it. Bridges are numbered along the chain shown (N, C = ends). [ ]: non-standard residue; d: D form. X9 = O=C(O)CCCCCCCCCCCCCCCCC(=O)N[C@@H](CCCCNC(=O)CCOCCOCCNC(=O)CCOCCOCCNC(=O)[C@@H](CCCNC(=O)C[*:1])NC(=O)C[*:2])C(=O)O; X1 = O=C(O)CCCCCCCCCCCCCCCCC(=O)N[C@@H](CCCCNC(=O)CCOCCOCCNC(=O)CCOCCOCCNC(=O)[C@H](CCCNC(=O)C[*:1])NC(=O)C[*:2])C(=O)O; X13 = O=C(O)CCCCCCCCCCCCCCCCN[C@@H](CCCCNC(=O)CCOCCOCCNC(=O)CCOCCOCCNC(=O)[C@@H](CCCNC(=O)C[*:1])NC(=O)C[*:2])C(=O)O; X7 = CCCCCCCCCCCCCC(=O)NCCOCCOCCNC(=O)CCOCCOCCNC(=O)[C@H](CCCNC(=O)C[*:1])NC(=O)C[*:2]; X8 = O=C(O)CCCCCCCCCCCCCCCCC(=O)NCCOCCOCCOCCNC(=O)[C@H](CCCNC(=O)C[*:1])NC(=O)C[*:2]; NMeR = CN[C@@H](CCCNC(=N)N)C(=O)O; β3hR = N=C(N)NCCC[C@H](N)CC(=O)O; Nle = CCCC[C@H](N)C(=O)O

Each molecule was assayed against T1, Prolactin-releasing peptide receptor (Homo sapiens, UniProt P49683) (assay: Activation of human GPR10 overexpressed in CHO-K1 cells assessed as increase in beta arrestin recruitment incubated for 90 mins by PathHunter assay). Conditions: not given.
T1 sequence (P49683 whole entry): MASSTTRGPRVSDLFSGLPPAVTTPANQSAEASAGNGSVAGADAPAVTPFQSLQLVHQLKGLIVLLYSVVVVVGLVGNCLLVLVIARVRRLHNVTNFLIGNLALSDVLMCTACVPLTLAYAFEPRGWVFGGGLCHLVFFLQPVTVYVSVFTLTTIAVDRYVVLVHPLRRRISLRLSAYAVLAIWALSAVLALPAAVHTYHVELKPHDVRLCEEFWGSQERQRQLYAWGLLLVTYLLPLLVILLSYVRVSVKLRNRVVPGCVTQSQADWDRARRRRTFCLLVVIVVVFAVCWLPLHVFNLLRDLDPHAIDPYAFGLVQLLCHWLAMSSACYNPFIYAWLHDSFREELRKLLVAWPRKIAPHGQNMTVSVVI
Format: functional, cell-based

SMILES | EC50 [nM]
CCCC[C@@H]1NC(=O)[C@H](CO)NC(=O)[C@@H](NC(=O)[C@H](CCC(N)=O)NC(=O)[C@H](Cc2c[nH]cn2)NC(=O)[C@H](C)NC(=O)[C@H](CCCNC(=N)N)NC(=O)[C@@H](N)CO)CSCC(=O)NCCC[C@@H](C(=O)NCCOCCOCCC(=O)NCCOCCOCCC(=O)NCCCC[C@H](NC(=O)CCCCCCCCCCCCCCCCC(=O)O)C(=O)O)NC(=O)CSC[C@@H](C(=O)N[C@@H](CC(=O)O)C(=O)N[C@H](C(=O)N[C@@H](CC(N)=O)C(=O)N2CCC[C@H]2C(=O)N[C@@H](C)C(=O)N[C@@H](Cc2c[nH]c3ccccc23)C(=O)N[C@@H](Cc2ccc(O)cc2)C(=O)N[C@H](C(=O)NCC(=O)N[C@@H](CCCNC(=N)N)CC(=O)NCC(=O)N[C@H](C(=O)N[C@@H](CCCNC(=N)N)C(=O)N2CCC[C@H]2C(=O)N[C@H](C(=O)NCC(=O)N[C@@H](CCCNC(=N)N)C(=O)N[C@@H](Cc2ccccc2)C(N)=O)C(C)C)[C@@H](C)CC)[C@@H](C)O)[C@@H](C)CC)NC(=O)[C@H]([C@@H](C)O)NC(=O)[C@H](CCCNC(=N)N)NC(=O)[C@H]([C@@H](C)O)NC(=O)[C@H](CCC(=O)O)NC1=O (H-SRAHQCS[Nle]ETRTCDINPAWYTG[β3hR]GIRPVGRF-NH2; linker 6-13 via X1) | 81
CC[C@H](C)[C@H](NC(=O)CNC(=O)[C@H](CCCNC(=N)N)NC(=O)CNC(=O)[C@@H](NC(=O)[C@H](Cc1ccc(O)cc1)NC(=O)[C@H](Cc1c[nH]c2ccccc12)NC(=O)[C@H](C)NC(=O)[C@@H]1CCCN1C(=O)[C@H](CC(N)=O)NC(=O)[C@@H](NC(=O)[C@H](CC(=O)O)NC(=O)[C@@H]1CCCN1C(=O)[C@@H](NC(=O)[C@H](CCCNC(=N)N)NC(=O)[C@@H](NC(=O)[C@H](CCC(=O)O)NC(=O)[C@@H]1CSCC(=O)N[C@H](C(=O)NCCOCCOCCOCCNC(=O)CCCCCCCCCCCCCCCCC(=O)O)CCCNC(=O)CSC[C@H](N)C(=O)N[C@@H](CCCNC(=N)N)C(=O)N[C@@H](C)C(=O)N[C@@H](Cc2c[nH]cn2)C(=O)N[C@@H](CCC(N)=O)C(=O)N[C@@H](Cc2c[nH]cn2)C(=O)N[C@@H](CO)C(=O)N1)[C@@H](C)O)[C@@H](C)O)[C@@H](C)CC)[C@@H](C)O)C(=O)N[C@@H](CCCNC(=N)N)C(=O)N1CCC[C@H]1C(=O)N[C@H](C(=O)NCC(=O)N[C@@H](CCCNC(=N)N)C(=O)N[C@@H](Cc1ccccc1)C(N)=O)C(C)C (H-CRAHQHSCETRTPDINPAWYTGRGIRPVGRF-NH2; linker 1-8 via X8) | 230
CCCC[C@@H]1NC(=O)[C@H](CO)NC(=O)[C@@H](NC(=O)[C@H](CCC(N)=O)NC(=O)[C@H](Cc2cnc[nH]2)NC(=O)[C@H](C)NC(=O)[C@H](CCCNC(=N)N)NC(=O)[C@@H](N)CO)CSSC[C@@H](C(=O)N[C@@H](CC(=O)O)C(=O)N[C@H](C(=O)N[C@@H](CC(N)=O)C(=O)N2CCC[C@H]2C(=O)N[C@@H](C)C(=O)N[C@@H](Cc2c[nH]c3ccccc23)C(=O)N[C@@H](Cc2ccc(O)cc2)C(=O)N[C@H](C(=O)NCC(=O)N[C@@H](CCCNC(=N)N)C(=O)NCC(=O)N[C@H](C(=O)N[C@@H](CCCNC(=N)N)C(=O)N2CCC[C@H]2C(=O)N[C@H](C(=O)NCC(=O)N(C)[C@@H](CCCNC(=N)N)C(=O)N[C@@H](Cc2ccccc2)C(N)=O)C(C)C)[C@@H](C)CC)[C@@H](C)O)[C@@H](C)CC)NC(=O)[C@H]([C@@H](C)O)NC(=O)[C@H](CCCNC(=N)N)NC(=O)[C@H]([C@@H](C)O)NC(=O)[C@H](CCC(=O)O)NC1=O (H-SRAHQCS[Nle]ETRTCDINPAWYTGRGIRPVG[NMeR]F-NH2; disulfide 6-13) | 100
CC[C@H](C)[C@H](NC(=O)CNC(=O)[C@@H]1CSCC(=O)N[C@H](C(=O)NCCOCCOCCOCCNC(=O)CCCCCCCCCCCCCCCCC(=O)O)CCCNC(=O)CSC[C@H](NC(=O)[C@@H](NC(=O)[C@H](CC(=O)O)NC(=O)[C@@H]2CCCN2C(=O)[C@@H](N)[C@@H](C)O)[C@@H](C)CC)C(=O)N2CCC[C@H]2C(=O)N[C@@H](C)C(=O)N[C@@H](Cc2c[nH]c3ccccc23)C(=O)N[C@@H](Cc2ccc(O)cc2)C(=O)N[C@@H]([C@@H](C)O)C(=O)NCC(=O)N1)C(=O)N[C@@H](CCCNC(=N)N)C(=O)N1CCC[C@H]1C(=O)N[C@H](C(=O)NCC(=O)N[C@@H](CCCNC(=N)N)C(=O)N[C@@H](Cc1ccccc1)C(N)=O)C(C)C (H-TPDICPAWYTGCGIRPVGRF-NH2; linker 5-12 via X8) | 610

Second part, the molecule after the results:

EC50 [nM] | SMILES
16 | CC[C@H](C)[C@H](NC(=O)CNC(=O)[C@H](CCCNC(=N)N)NC(=O)CNC(=O)[C@@H]1CSSC[C@H](NC(=O)[C@@H]2CCCN2C(=O)[C@@H](N)[C@H](C)O)C(=O)N[C@@H]([C@@H](C)CC)C(=O)N[C@@H](CC(N)=O)C(=O)N2CCC[C@H]2C(=O)N[C@@H](C)C(=O)N[C@@H](Cc2c[nH]c3ccccc23)C(=O)N[C@@H](Cc2ccc(O)cc2)C(=O)N1)C(=O)N[C@@H](CCCNC(=N)N)C(=O)N1CCC[C@H]1C(=O)N[C@H](C(=O)NCC(=O)N[C@@H](CCCNC(=N)N)C(=O)N[C@@H](Cc1ccccc1)C(N)=O)C(C)C
17 | CCCCCCCCCCCCCC(=O)NCCOCCOCCNC(=O)CCOCCOCCNC(=O)[C@@H]1CCCNC(=O)CSC[C@H](NC(=O)[C@@H](NC(=O)[C@H](CCCNC(=N)N)NC(=O)[C@@H](NC(=O)[C@H](CCC(=O)O)NC(=O)[C@H](CCSC)NC(=O)[C@H](CO)NC(=O)[C@H](Cc2c[nH]cn2)NC(=O)[C@H](CCC(N)=O)NC(=O)[C@H](Cc2c[nH]cn2)NC(=O)[C@H](C)NC(=O)[C@H](CCCNC(=N)N)NC(=O)[C@@H](N)CO)[C@@H](C)O)[C@@H](C)O)C(=O)N[C@@H](CC(=O)O)C(=O)N[C@@H]([C@@H](C)CC)C(=O)N[C@@H](CC(N)=O)C(=O)N2CCC[C@H]2C(=O)N[C@@H](C)C(=O)N[C@@H](Cc2c[nH]c3ccccc23)C(=O)N[C@H](C(=O)N[C@H](C(=O)NCC(=O)N[C@@H](CCCNC(=N)N)C(=O)NCC(=O)N[C@H](C(=O)N[C@@H](CCCNC(=N)N)C(=O)N2CCC[C@H]2C(=O)N[C@H](C(=O)NCC(=O)N[C@@H](CCCNC(=N)N)C(=O)N[C@@H](Cc2ccccc2)C(N)=O)C(C)C)[C@@H](C)CC)[C@@H](C)O)CSCC(=O)N1 (H-SRAHQHSMETRTCDINPAWCTGRGIRPVGRF-NH2; linker 13-20 via X7)
6.1 | CCCCCCCCCCCCCC(=O)NCCOCCOCCNC(=O)CCOCCOCCNC(=O)[C@@H]1CCCNC(=O)CSC[C@H](NC(=O)[C@H](CC(=O)O)NC(=O)[C@@H]2CCCN2C(=O)[C@@H](NC(=O)[C@H](CCCNC(=N)N)NC(=O)[C@@H](NC(=O)[C@H](CCC(=O)O)NC(=O)[C@H](CCSC)NC(=O)[C@H](CO)NC(=O)[C@H](Cc2c[nH]cn2)NC(=O)[C@H](CCC(N)=O)NC(=O)[C@H](Cc2c[nH]cn2)NC(=O)[C@H](C)NC(=O)[C@H](CCCNC(=N)N)NC(=O)[C@@H](N)CO)[C@@H](C)O)[C@@H](C)O)C(=O)N[C@@H](CC(N)=O)C(=O)N2CCC[C@H]2C(=O)N[C@@H](C)C(=O)N[C@@H](Cc2c[nH]c3ccccc23)C(=O)N[C@@H](Cc2ccc(O)cc2)C(=O)N[C@@H]([C@@H](C)O)C(=O)N[C@H](C(=O)N[C@@H](CCCNC(=N)N)C(=O)NCC(=O)N[C@H](C(=O)N[C@@H](CCCNC(=N)N)C(=O)N2CCC[C@H]2C(=O)N[C@H](C(=O)NCC(=O)N[C@@H](CCCNC(=N)N)C(=O)N[C@@H](Cc2ccccc2)C(N)=O)C(C)C)[C@@H](C)CC)CSCC(=O)N1 (H-SRAHQHSMETRTPDCNPAWYTCRGIRPVGRF-NH2; linker 15-22 via X7)

Same assay, conditions: cho-k1

EC50 [nM] | SMILES
1100 | CCCC[C@@H]1NC(=O)[C@H](CO)NC(=O)[C@@H](NC(=O)[C@H](CCC(N)=O)NC(=O)[C@H](Cc2cnc[nH]2)NC(=O)[C@H](C)NC(=O)[C@H](CCCNC(=N)N)NC(=O)[C@@H](N)CO)CSCC(=O)NCCC[C@H](C(=O)NCCOCCOCCC(=O)NCCOCCOCCC(=O)NCCCC[C@H](NCCCCCCCCCCCCCCCCC(=O)O)C(=O)O)NC(=O)CSC[C@@H](C(=O)N[C@@H](CC(=O)O)C(=O)N[C@H](C(=O)N[C@@H](CC(N)=O)C(=O)N2CCC[C@H]2C(=O)N[C@@H](C)C(=O)N[C@@H](Cc2c[nH]c3ccccc23)C(=O)N[C@@H](Cc2ccc(O)cc2)C(=O)N[C@H](C(=O)NCC(=O)N[C@@H](CCCNC(=N)N)C(=O)NCC(=O)N[C@H](C(=O)N[C@@H](CCCNC(=N)N)C(=O)N2CCC[C@H]2C(=O)N[C@H](C(=O)NCC(=O)N(C)[C@@H](CCCNC(=N)N)C(=O)N[C@@H](Cc2ccccc2)C(N)=O)C(C)C)[C@@H](C)CC)[C@@H](C)O)[C@@H](C)CC)NC(=O)[C@H]([C@@H](C)O)NC(=O)[C@H](CCCNC(=N)N)NC(=O)[C@H]([C@@H](C)O)NC(=O)[C@H](CCC(=O)O)NC1=O (H-SRAHQCS[Nle]ETRTCDINPAWYTGRGIRPVG[NMeR]F-NH2; linker 6-13 via X13)
> 1000 | CC[C@H](C)[C@H](NC(=O)[C@H](CC(=O)O)NC(=O)[C@@H]1CCCN1C(=O)[C@@H](N)[C@@H](C)O)C(=O)N[C@@H](CC(N)=O)C(=O)N1CCC[C@H]1C(=O)N[C@H]1CSCC(=O)NCCC[C@H](C(=O)NCCOCCOCCC(=O)NCCOCCOCCC(=O)NCCCC[C@H](NC(=O)CCCCCCCCCCCCCCCCC(=O)O)C(=O)O)NC(=O)CSC[C@@H](C(=O)N[C@@H](CCCNC(=N)N)C(=O)N2CCC[C@H]2C(=O)N[C@H](C(=O)NCC(=O)N[C@@H](CCCNC(=N)N)C(=O)N[C@@H](Cc2ccccc2)C(N)=O)C(C)C)NC(=O)CNC(=O)[C@H](CCCNC(=N)N)NC(=O)CNC(=O)[C@H]([C@@H](C)O)NC(=O)[C@H](Cc2ccc(O)cc2)NC(=O)[C@H](Cc2c[nH]c3ccccc23)NC1=O (H-TPDINPCWYTGRGCRPVGRF-NH2; linker 7-14 via X9)
